# Assays:
# [1] = test system: Neuro-2A-cells; assay: Confluence measurements during PD-transfections (Cytosmart live-cell imager); type: cell-based, murine; conditions: Cas9-GFP- and GFP-DNA-transfections ± saponin, up to 95 h, vs untreated negative control
# Description: FIG. 5A-F. Confluence measurements of Neuro-2A-cells during PD (Cas9-GFP)-transfections ±saponin-administration. A visual monitoring of confluence was conducted during the Cas9-GFP-transfections (FIGS. 5A, E, F) and GFP-DNA-transfections (FIGS. 5A, C, D) of Neuro-2A-cells. The display of confluence during the incubation time was provided by algorithms of the Cytosmart. […] Saponin GE1741 was absent (FIGS. 5A, C, E) or present (FIGS. 5A, D, F) during the confluency assessment over time. FIG. 5B-F show the Neuro-2A cell-confluency after an incubation time of 95 h.
# In the course of the transfection process of Neuro-2A-cells (seeding, transfection, incubation), the cells were fully imaged and analyzed for confluence by a live-cell imager (Cytosmart Omni). Via cloud-based algorithms, which processed the visual images, the Cytosmart provided a valuable measure of viability in terms of confluence.
# [2] = test system: GFP-expressing Neuro-2A-GFP-cells; assay: GFP-knockout via Cas9/gRNA(GFP) nanoplexes, FITC-H flow cytometry; type: cell-based, murine; conditions: for cells not considered fluorescent: GE1741-co-application
# Description: FIG. 6A-E. GFP-Knockout of GFP-expressing Neuro-2A-GFP-cells via PDD (Cas9-DNA, gRNA (GFP)-DNA)-nanoplexes±saponin administration (co-transfection). GFP expressing Neuro-2A-cells were transfected via co-transfection of Cas9-DNA-plasmid and gRNA (GFP)-DNA-plasmid in a ratio of 4:0.5:0:5, with 500 ng of each DNA/well and 4.000 ng poly-lysine K16 peptide perwell. […] With saponin-Co-administration, the FITC-H was decreased by 10% (FIG. 6D) and the amount of cells not considered “fluorescent” compared to negative control, was increased by 7.5% (FIG. 6E).; n 3. FIG. 6A: FACS results with negative control; FIG. 6B: FACS results with PDD(Cas9-DNA, gRNA(GFP)-DNA), 4:1; FIG. 6C: FACS results of PDD(Cas9-DNA, gRNA(GFP)-DNA), 4:1+GE1741; FIG. 6D: values for the median FITC-H for the test samples of FIG. 6A-C and the control Lipofectamine3000DD(Cas9-DNA); FIG. 6E: amount of non-fluorescent cells in the test samples of FIGS. 6A-C and the control Lipofectamine3000DD(Cas9-DNA).
# FIG. 7A-E. GFP-Knockout of GFP-expressing Neuro-2A-cells via PD (Cas9-gRNA (GFP)-DNA)-nanoplexes±saponin administration (All-in-one-transfection). GFP expressing Neuro-2A-cells were transfected via “All-in-one”-transfection of a Cas9-gRNA (GFP)-DNA-plasmid in a ratio of 4:1, 500 ng of each DNA/well. […] FIG. 7A: FACS results with negative control; FIG. 7B: FACS results with PD(Cas9-gRNA(GFP)-DNA, 4:1; FIG. 7C: FACS results of PD(Cas9-gRNA(GFP)-DNA, 4:1+GE1741; FIG. 7D: values for the median FITC-H for the test samples of FIG. 7A-C and for PD(Cas9-gRNA(GFP)-DNA, 8:1 and PD(Cas9-gRNA(GFP)-DNA, 8:1+GE1741; FIG. 7E: amount of non-fluorescent cells in the test samples of FIG. 7A-C and for PD(Cas9-gRNA(GFP)-DNA, 8:1 and PD(Cas9-gRNA(GFP)-DNA, 8:1+GE1741.
# After the successful delivery of Cas9-DNA with GFP-driven fluorescence has been established, the inventors next tested the functionality of Cas9-transfections. GFP-expressing Neuro-2A-GFP-cells were therefore acquired. The aim of the test was to show and visualize the knock-out of the GFP-gene with a CRISPR-Cas9-gene knock-out. Therefore, Cas9-DNA (i.e. a plasmid DNA) was, either co-transfected with a gRNA-DNA-plasmid (PDD), or delivered in one plasmid DNA (“All-In-One-Plasmid”) coding for Cas9 and gRNA (PD) and expressing both Cas9 and guide RNA (FIG. 8, FIG. 9). The effect of GE1741-co-application during transfection of the cells was investigated via decrease of fluorescence intensity (FITC-H median & separation of the dot plot in FITC-H & FSC related quarters). […] To improve gene knock-out efficiency, a number of different gRNA-sequences was tested, in order to select the most efficient target sequence for the gRNA. The initially and further applied gRNA-sequences were obtained through a database with efficiency information. For selection of an optimal gRNA sequence, the GFP-gene sequence of the transfected cell line has to be known as many GFP-sequences are available. Further, the gene knock-out requires a sensitive assay, by which minimal changes can be detected. Within promotor-driven highly fluorescing cells, single gene knock-out possibly could not be identified.
smiles,measurement,setting,value
CC(=O)OC1C(C)OC(OC2C(C)OC(OC(=O)C34CCC(C)(C)CC3C3=CCC5C6(C)CCC(OC7OC(C(=O)O)C(O)C(OC8OCC(O)C(O)C8O)C7OC7OC(CO)C(O)C(O)C7O)C(C)(C=O)C6CCC5(C)C3(C)CC4O)C(OC3OC(C)C(OC4OCC(O)C(OC5OCC(O)C(O)C5O)C4O)C(O)C3O)C2O)C(O)C1OC(C)=O (centres unmarked) [GE1741],toxic effects by confluence,[1],No distinct toxic effects
same,cells successfully transfected with Cas9-DNA,[2],30%
same,cells not considered fluorescent,[2]; All-In-One-Plasmid (PD),11%
same,FITC-H median change (in words),[2]; All-in-one PD (Cas9-gRNA(GFP)-DNA),No FITC-H could be observed
same,"amount of cells considered fluorescent, elevated by","[2]; All-in-one PD (Cas9-gRNA(GFP)-DNA), PD mass ratio 8:1",11%
same,decrease of FITC-H median,"[2]; co-transfection PDD (Cas9-DNA, gRNA(GFP)-DNA) 4:0.5:0.5, with saponin",10%
same,increase of cells not considered fluorescent compared to negative control,"[2]; co-transfection PDD (Cas9-DNA, gRNA(GFP)-DNA), with saponin",7.5%
same,cells not considered fluorescent,[2]; co-transfection with gRNA-DNA-plasmid (PDD),10%

# — patent US20240279684A1, “CYTOSOLIC DELIVERY OF GENOME EDITING TOOLS” (SAPREME TECHNOLOGIES B.V., priority 2021, published 2024)
